# From paper PMC4666608, “Metabolic Profiling of Chicken Embryos Exposed to Perfluorooctanoic Acid (PFOA) and Agonists to Peroxisome Proliferator-Activated Receptors” (PLoS ONE, 2015)
# Marks after values point to notes of the source that are not given here.
# System: chicken embryos
# Assay: Metabolic profiling of allantoic fluid (GC-MS, LC-MS, OPLS-DA)
# Format: in vivo, Gallus gallus domesticus
# Conditions: 150 μg/egg
# Description: Controls were injected with 20 μL vehicle only (DMSO).
# Plasma was collected and stored at -70°C.
# Metabolites in allantoic fluid and blood plasma were analyzed using gas chromatography-mass spectrometry (GC-MS) and liquid chromatography-mass spectrometry (LC-MS) as described in S1 Methods. Prior to GC-MS and LC-MS analysis, allantoic fluid (100 μL) and blood plasma (50 μL) were extracted. To each sample, 900 μL (allantoic fluid) or 450 μL (blood plasma) of extraction buffer (90/10 v/v methanol:water) including all internal standards were added. Standards for GC-MS were proline, succinic acid, glutamic acid, salicylic acid, alpha-ketoglutarate, putrescine, myristic acid, hexadecanoic acid, cholesterol, and sucrose. Standards for LC-MS were Val-Tyr-Val, Leu-enkephalin, sulfadimethoxine and reserpine. Samples were homogenized by shaking in a bead mill at a frequency of 30 Hz for 3 minutes and proteins were precipitated at +4°C on ice. The samples were centrifuged at +4°C, 14000 rpm, for 10 min. Then, 200 μL supernatant was transferred to a GC microvial and 200 μL was transferred to an LC microvial, and solvents were evaporated. Samples from the four replicate experiments were analyzed using in chronological order and within each replicate experiment the run order of the individual samples was randomized.
# Multivariate statistical analyses of metabolite profiles were performed using the software package SIMCA-P version 13.0 (Umetrics, Umeå, Sweden). Data was centered and scaled to variance 1 (UV scaling) prior to modelling. To reduce unintended systematic variation caused by sample processing and instrument drift, GC-MS and LC-MS metabolite amounts (expressed as the area under the chromatographic peak) were normalized by Orthogonal Partial Least Squares analysis (O2PLS) prior to multivariate data analysis. O2PLS finds common (predictive) and unique (orthogonal) variation in two data matrices. If applied to find the common variation between the data matrix containing the measured metabolite concentrations and a matrix containing only the internal standards, the only common (predictive) variation expected is due to the unintended systematic variation. By deleting the contribution of the predictive latent variables, that variation can be removed from the data. Models obtained after this normalization contain in general less latent variables, and this simplification helps when deciding on the number of latent variables to be used. Following normalization, GC-MS and LC-MS data were analyzed together. Initially, a global Principal Component Analysis (PCA) was performed to get an overview of groups and trends and to identify outliers. Projections to latent structures by means of Orthogonal Partial Least Squares Discriminant Analysis (OPLS-DA) was used to model the relationship between the X-matrix (metabolite concentrations) and the Y matrix (class, i.e. exposure group or sex), and to find x-variables that were related to class belonging. OPLS-DA is a supervised prediction and regression method that rotates the projection plane to find the maximum covariance between the data and the class assignment. All groups were first analyzed together in a 5-class OPLS-DA and then each exposure group was analyzed against the control group in a 2-class OPLS-DA. Sex differences were analyzed both using the whole data set and in each group separately using 2-class OPLS-DA, with females and males as the two classes. Only variables with 80% or more nonzero values were included in the statistical models. […] The validity of each model was also checked using CV-ANOVA (ANOVA of the cross-validated residuals). A significance level of p < 0.05 was used. For each model, R ^2 X, R ^2 Y and Q ^2 values were calculated, where R ^2 X is a measure of the fraction of x variation modeled in the extracted latent variables, R ^2 Y is a measure of the fraction of y variation modeled and Q ^2 is an estimate of the predictive ability of the model and is calculated by cross-validation. […]
# [1] = GC, tentative 2-Oxovaleric acid
structure (smiles),measurement,setting,value
"CC(C)(Sc1ccc(CCN(CCCCC2CCCCC2)C(=O)NC2CCCCC2)cc1)C(=O)O [GW7647, reference compound]","Mean concentration relative to control, feature Win004_C08",GC,1.3***
same,"Mean concentration relative to control, feature Win005_C07",GC,1.4***
same,"Mean concentration relative to control, feature Win008_C06",GC,2.7***
same,"Mean concentration relative to control, feature Win022_C01",GC,2.3***
same,"Mean concentration relative to control, feature Win023_C06",GC,2.8***
same,"Mean concentration relative to control, feature win006_C01",GC,2.4***
same,"Mean concentration relative to control, feature Win008_C07","GC, tentative 1-Aminocyclopropanecarboxylic acid",1.4***
same,"Mean concentration relative to control, feature Win023_C03","GC, tentative 2-Oxoglutaric acid",2.5***
same,"Mean concentration relative to control, feature Win007_C09",[1],1.5***
same,"Mean concentration relative to control, feature Win008_C05",[1],1.6***
same,"Mean concentration relative to control, feature Win018_C04","GC, tentative 3-Amino-2-piperidone",1.4***
same,"Mean concentration relative to control, feature Win007_C03","GC, tentative 3-Hydroxybutanoic acid",1.3***
same,"Mean concentration relative to control, feature Win042_C02","GC, tentative Cystathionine",2.1***
same,"Mean concentration relative to control, feature Win009_C03","GC, tentative Ketoleucine",1.5***
same,"Mean concentration relative to control, feature Win008_C04","GC, tentative Malonic acid",1.3***
same,"Mean concentration relative to control, feature Win005_C03","GC, tentative Oxalic acid",0.8*
same,"Mean concentration relative to control, feature Win013_C05","GC, tentative Succinic acid",1.3***
same,"Mean concentration relative to control, feature 134.0239@1.1350567",LC,1.6*
same,"Mean concentration relative to control, feature 145.0538@3.072527",LC,1.8***
same,"Mean concentration relative to control, feature 147.0328@3.0722888",LC,1.7***
same,"Mean concentration relative to control, feature 160.0323@1.1950632",LC,1.1*
same,"Mean concentration relative to control, feature 173.0488@3.0734746",LC,1.8***
same,"Mean concentration relative to control, feature 176.0952@1.3890611",LC,0.6
same,"Mean concentration relative to control, feature 178.0428@1.7582192",LC,1.1
same,"Mean concentration relative to control, feature 180.0048@4.421465",LC,1.0
same,"Mean concentration relative to control, feature 189.1159@1.9209185",LC,0.8*
same,"Mean concentration relative to control, feature 197.0639@2.1181405",LC,1.2***
same,"Mean concentration relative to control, feature 201.012@3.046474",LC,1.5***
same,"Mean concentration relative to control, feature 202.0429@2.9548414",LC,1.1
same,"Mean concentration relative to control, feature 205.0533@4.421879",LC,1.0
same,"Mean concentration relative to control, feature 214.016@2.1190732",LC,1.3***
same,"Mean concentration relative to control, feature 226.0107@4.421457",LC,1.0
same,"Mean concentration relative to control, feature 236.0816@3.0720985",LC,1.7***
same,"Mean concentration relative to control, feature 241.0551@2.3510706",LC,1.2*
same,"Mean concentration relative to control, feature 243.1118@2.1537287",LC,1.0
same,"Mean concentration relative to control, feature 244.9972@4.421603",LC,1.0
same,"Mean concentration relative to control, feature 245.1563@2.2907295",LC,0.8*
same,"Mean concentration relative to control, feature 250.0981@3.072492",LC,1.8***
same,"Mean concentration relative to control, feature 262.0978@2.7961144",LC,2.6***
same,"Mean concentration relative to control, feature 263.0855@2.2847009",LC,2.1***
same,"Mean concentration relative to control, feature 270.0441@1.1407775",LC,0.9
same,"Mean concentration relative to control, feature 278.0928@3.0723689",LC,1.8***
same,"Mean concentration relative to control, feature 279.1248@2.796395",LC,3.2***
same,"Mean concentration relative to control, feature 280.1425@2.730277",LC,1.0
same,"Mean concentration relative to control, feature 288.1166@2.9551322",LC,1.2
same,"Mean concentration relative to control, feature 289.1012@3.249983",LC,1.8***
same,"Mean concentration relative to control, feature 289.173@7.5030584",LC,0.9
same,"Mean concentration relative to control, feature 294.1242@2.3692534",LC,1.0
same,"Mean concentration relative to control, feature 302.0508@3.0722616",LC,1.6***
same,"Mean concentration relative to control, feature 305.1682@5.353517",LC,1.7***
same,"Mean concentration relative to control, feature 305.1684@5.2955093",LC,1.6***
same,"Mean concentration relative to control, feature 308.073@4.4211636",LC,1.0
same,"Mean concentration relative to control, feature 310.1181@1.5090439",LC,1.1
same,"Mean concentration relative to control, feature 316.0389@3.0725708",LC,1.5***
same,"Mean concentration relative to control, feature 320.0626@3.0729218",LC,1.5***
same,"Mean concentration relative to control, feature 325.1114@2.1190624",LC,1.5***
same,"Mean concentration relative to control, feature 325.1115@2.3554378",LC,1.3*
same,"Mean concentration relative to control, feature 333.1335@2.8639288",LC,0.9
same,"Mean concentration relative to control, feature 333.2005@6.5291867",LC,1.3*
same,"Mean concentration relative to control, feature 335.1866@4.508565",LC,0.4***
same,"Mean concentration relative to control, feature 337.1651@1.8737898",LC,1.4***
same,"Mean concentration relative to control, feature 344.1424@2.348947",LC,1.3
same,"Mean concentration relative to control, feature 348.0553@3.0730357",LC,1.5***
same,"Mean concentration relative to control, feature 349.1651@2.4087605",LC,0.6***
same,"Mean concentration relative to control, feature 357.1997@6.9691257",LC,1.1
same,"Mean concentration relative to control, feature 371.1513@3.0009465",LC,1.2
same,"Mean concentration relative to control, feature 375.1819@3.672254",LC,0.6***
same,"Mean concentration relative to control, feature 394.167@3.9552917",LC,0.5***
same,"Mean concentration relative to control, feature 414.1482@2.118972",LC,1.5***
same,"Mean concentration relative to control, feature 466.0837@2.1187525",LC,1.5***
same,"Mean concentration relative to control, feature 488.0753@4.419585",LC,1.0
same,"Mean concentration relative to control, feature 498.1003@2.1184251",LC,1.4***
same,"Mean concentration relative to control, feature 507.1682@2.1238236",LC,1.4***
same,"Mean concentration relative to control, feature 580.1426@3.0726147",LC,2.3***
same,"Mean concentration relative to control, feature 582.1578@2.1747615",LC,1.7***
same,"Mean concentration relative to control, feature 588.1751@2.1182237",LC,1.5***
same,"Mean concentration relative to control, feature 594.1337@3.0724604",LC,2.3***
same,"Mean concentration relative to control, feature 604.1486@2.1174603",LC,1.5***
same,"Mean concentration relative to control, feature 623.183@2.1249466",LC,1.8***
same,"Mean concentration relative to control, feature 668.2625@6.4379454",LC,1.03*
same,"Mean concentration relative to control, feature 155.0353@0.6447272","LC, suggested C3H10NO4P",0.6
same,"Mean concentration relative to control, feature 345.0497@1.1234403","LC, suggested C10H12N5O7P",1.3*
same,"Mean concentration relative to control, feature 337.0259@4.4213357","LC, suggested C13H11N3O4S2",1.0
same,"Mean concentration relative to control, feature 344.1427@2.1164653","LC, suggested C13H20N4O7",1.5***
same,"Mean concentration relative to control, feature 331.184@6.373359","LC, suggested C13H25N5O5",1.3*
same,"Mean concentration relative to control, feature 361.2026@5.6644735","LC, suggested C16H31N3O4S",0.5***
